From US20180015100A1, “COMBINATION PRODUCTS FOR THE TREATMENT OF BACTERIAL INFECTIONS AND METHODS OF PRODUCING OR DOSING OF SAME” (priority 2016, published 2018)
Converted amounts (≈) assume the structure as drawn. Where two headings read alike, the source gives them in different places.

Tests used:
[1] = tested on: Francisella tularensis ShuS4; assay: microbe, parasite or virus in culture; assay type: cell-based
[2] = tested on: ESBL Escherichia coli isolates; assay: Killing kinetics (time-kill); assay type: cell-based; conditions: 4X MIC of CTB+CLA
[3] = tested on: Enterobacter cloacae isolates; assay: MIC of cephalosporins alone or with clavulanate/tazobactam; assay type: cell-based; conditions: clavulanate 2:1, tazobactam 4 μg/mL
CTX-M-15 Strain = assay: MIC of cephalosporins without and with CLV (Table 16); assay type: cell-based
[4] = tested on: Klebsiella pneumoniae isolates; assay: MIC of cephalosporins alone or with clavulanate/tazobactam; assay type: cell-based; conditions: clavulanate 2:1, tazobactam 4 μg/mL
[5] = tested on: Burkholderia mallei China7; assay: microbe, parasite or virus in culture; assay type: cell-based
[6] = In vivo drug-drug interaction, plasma pharmacokinetics after oral bolus; conditions: rat, oral 34.5 mg/kg ceftibuten ± 10.8 mg/kg clavulanate
[7] = tested on: 385 Escherichia coli and 126 Klebsiella pneumoniae isolates; assay: MIC, MIC50 and MIC90 by reference broth microdilution against 511 UTI/bloodstream isolates (USA and Europe 2014-2015); assay type: cell-based
[8] = 365 isolates producing CTX-M enzymes

## Nc1nc(/C(=C/CC(=O)O)C(=O)N[C@@H]2C(=O)N3C(C(=O)O)=CCS[C@H]23)cs1 [Ceftibuten, ceftibuten]
[1]
  MIC: 0.25 µg/mL (≈ 0.609 µM)
[2]; AECO1156, 2 h
  Change in Log10 CFU/mL From Inoculum (0 hr): 0.33 Log10 CFU/mL
[2]; AECO1156, 4 h
  Change in Log10 CFU/mL From Inoculum (0 hr): 2.35 Log10 CFU/mL
[2]; AECO1156, 6 h
  Change in Log10 CFU/mL From Inoculum (0 hr): 3.28 Log10 CFU/mL
[2]; AECO1156, 24 h
  Change in Log10 CFU/mL From Inoculum (0 hr): 3.98 Log10 CFU/mL
[2]; AECO1157, 2 h
  Change in Log10 CFU/mL From Inoculum (0 hr): 1.02 Log10 CFU/mL
[2]; AECO1157, 4 h
  Change in Log10 CFU/mL From Inoculum (0 hr): 2.88 Log10 CFU/mL
[2]; AECO1157, 6 h
  Change in Log10 CFU/mL From Inoculum (0 hr): 3.29 Log10 CFU/mL
[2]; AECO1157, 24 h
  Change in Log10 CFU/mL From Inoculum (0 hr): 3.63 Log10 CFU/mL
[2]; AECO1162, 2 h
  Change in Log10 CFU/mL From Inoculum (0 hr): −0.36 Log10 CFU/mL
[2]; AECO1162, 4 h
  Change in Log10 CFU/mL From Inoculum (0 hr): 0.17 Log10 CFU/mL
[2]; AECO1162, 6 h
  Change in Log10 CFU/mL From Inoculum (0 hr): 2.19 Log10 CFU/mL
[2]; AECO1162, 24 h
  Change in Log10 CFU/mL From Inoculum (0 hr): 3.46 Log10 CFU/mL
[2]; AECO1166, 2 h
  Change in Log10 CFU/mL From Inoculum (0 hr): −1.30 Log10 CFU/mL
[2]; AECO1166, 4 h
  Change in Log10 CFU/mL From Inoculum (0 hr): 0.58 Log10 CFU/mL
[2]; AECO1166, 6 h
  Change in Log10 CFU/mL From Inoculum (0 hr): 2.24 Log10 CFU/mL
[2]; AECO1166, 24 h
  Change in Log10 CFU/mL From Inoculum (0 hr): 3.71 Log10 CFU/mL
[3]; AECL1065 (CTX-M-15)
  MIC: > 64 µg/mL
[3]; AECL1067 (CTX-M-3)
  MIC: 32 µg/mL
CTX-M-15 Strain; read-out: MIC CTX-M-15 Strain − CLV
  MIC: 16 µg/mL
CTX-M-15 Strain; with CLV
  MIC CTX-M-15 Strain + CLV: 1 µg/mL
[4]; AKPN1159 (SHV-12)
  MIC: 4 µg/mL
[4]; AKPN1161 (SHV-7)
  MIC: 2 µg/mL
[4]; AKPN1162 (CTX-M-15, SHV-12)
  MIC: 32 µg/mL
[4]; AKPN1166 (CTX-M-14, SHV-12)
  MIC: 4 µg/mL
[4]; AKPN1167 (SHV-2)
  MIC: 2 µg/mL
[5]
  MIC: 1 to 2 µg/mL (≈ 2.44 to 4.87 µM)
[6]
  effect of the combination on plasma concentration of ceftibuten vs ceftibuten alone: did not markedly alter
[7]; [8]
  % of the isolates inhibited at ≦1 μg/mL: 19.7%
  % of the isolates inhibited at ≦8 μg/mL: 64.4%
[7]; 365 isolates producing CTX-M enzymes (no transferrable AmpC/carbapenemase)
  MIC50: 8 µg/mL (≈ 19.5 µM)
[7]; 365 isolates producing CTX-M enzymes (no transferrable AmpC/carbapenemase), read-out: MIC90
  MIC90: 32 µg/mL (≈ 78 µM)
[7]; 379 E. coli or K. pneumoniae isolates genotyped for CTX-M, TEM, or SHV ESBLs, 2:1 ratio
  MIC90: ~32 µg/mL
[7]; 511 isolates
  MIC50: 8 µg/mL (≈ 19.5 µM)
  MIC90: >32 µg/mL
[7]; 511 isolates, read-out: MIC90
  MIC90: > 32 µg/mL
[7]; All CTX-M-producing K pneumoniae (71)
  MIC50: 8 µg/mL (≈ 19.5 µM)
[7]; All CTX-M-producing K pneumoniae (71), read-out: MIC90
  MIC90: > 32 µg/mL
[7]; All CTX-M-producing isolates (365)
  MIC50: 8 µg/mL (≈ 19.5 µM)
[7]; All CTX-M-producing isolates (365), read-out: MIC90
  MIC90: 32 µg/mL (≈ 78 µM)
[7]; Enterobacteriaceae (511)
  MIC50: 8 µg/mL (≈ 19.5 µM)
[7]; Enterobacteriaceae (511), read-out: MIC90
  MIC90: > 32 µg/mL
[7]; Escherichia coli, All CTX-M-producing E. coli (294)
  MIC50: 8 µg/mL (≈ 19.5 µM)
[7]; Escherichia coli, All CTX-M-producing E. coli (294), read-out: MIC90
  MIC90: 32 µg/mL (≈ 78 µM)
[7]; Escherichia coli, E. coli (385)
  MIC50: 8 µg/mL (≈ 19.5 µM)
[7]; Escherichia coli, E. coli (385), read-out: MIC90
  MIC90: > 32 µg/mL
[7]; Isolates producing CTX-M Group 1 (276)
  MIC50: 8 µg/mL (≈ 19.5 µM)
[7]; Isolates producing CTX-M Group 1 (276), read-out: MIC90
  MIC90: > 32 µg/mL
[7]; Isolates producing CTX-M Group 9 (92)
  MIC50: 1 µg/mL (≈ 2.44 µM)
[7]; Isolates producing CTX-M Group 9 (92), read-out: MIC90
  MIC90: 16 µg/mL (≈ 39 µM)
[7]; Isolates producing SHV ESBL (18)
  MIC50: 1 µg/mL (≈ 2.44 µM)
[7]; Isolates producing SHV ESBL (18), read-out: MIC90
  MIC90: 16 µg/mL (≈ 39 µM)
[7]; Isolates producing transferable AmpC (57)
  MIC50: > 32 µg/mL
[7]; Isolates producing transferable AmpC (57), read-out: MIC90
  MIC90: > 32 µg/mL
[7]; K pneumoniae (126)
  MIC50: 8 µg/mL (≈ 19.5 µM)
[7]; K pneumoniae (126), read-out: MIC90
  MIC90: > 32 µg/mL
[7]; KPC-producers (25)
  MIC50: 8 µg/mL (≈ 19.5 µM)
[7]; KPC-producers (25), read-out: MIC90
  MIC90: 32 µg/mL (≈ 78 µM)
[7]; MIC 0.015 μg/mL, All CTX-M-producing K pneumoniae (71)
  cumulative % of isolates at MIC: (0.0) %
[7]; MIC 0.015 μg/mL, All CTX-M-producing isolates (365)
  cumulative % of isolates at MIC: (0.0) %
[7]; MIC 0.015 μg/mL, Isolates producing CTX-M Group 9 (92)
  cumulative % of isolates at MIC: (0.0) %
[7]; MIC 0.015 μg/mL, Isolates producing SHV ESBL (18)
  cumulative % of isolates at MIC: (0.0) %
[7]; MIC 0.015 μg/mL, K pneumoniae (126)
  cumulative % of isolates at MIC: (0.0) %
[7]; MIC 0.03 μg/mL, All CTX-M-producing K pneumoniae (71)
  cumulative % of isolates at MIC: (1.4) %
[7]; MIC 0.03 μg/mL, All CTX-M-producing isolates (365)
  cumulative % of isolates at MIC: (0.3) %
[7]; MIC 0.03 μg/mL, E. coli (385)
  cumulative % of isolates at MIC: (0.0) %
[7]; MIC 0.03 μg/mL, Isolates producing CTX-M Group 9 (92)
  cumulative % of isolates at MIC: (1.1) %
[7]; MIC 0.03 μg/mL, Isolates producing SHV ESBL (18)
  cumulative % of isolates at MIC: (11.1) %
[7]; MIC 0.03 μg/mL, K pneumoniae (126)
  cumulative % of isolates at MIC: (4.0) %
[7]; MIC 0.06 μg/mL, All CTX-M-producing E. coli (294)
  cumulative % of isolates at MIC: (0.0) %
[7]; MIC 0.06 μg/mL, All CTX-M-producing K pneumoniae (71)
  cumulative % of isolates at MIC: (2.8) %
[7]; MIC 0.06 μg/mL, All CTX-M-producing isolates (365)
  cumulative % of isolates at MIC: (0.5) %
